We go through 18 molecules from patent US11992481B2, “Use of 2-substituted indazoles for the treatment and prophylaxis of autoimmune diseases” (Bayer Pharma Aktiengesellschaft, priority 2016, dated 2024).

The experiment deals with THP-1 cells. As to the kind of experiment: TNF-α secretion in THP-1 cells (LPS-triggered). The experiment is classed as cell-based. The following applies: Homo sapiens, 0.05 μg/ml LPS, 17 h, read-out: IC50 with respect to the secretion of TNF-α in THP-1 cells. Here is the method:
With the aid of this test, it is possible to test substances for their ability to inhibit secretion of TNF-α (tumour necrosis factor alpha) in THP-1 cells (human monocytic acute leukaemia cell line). […] In this test, TNF-α secretion is triggered by incubation with bacterial lipopolysaccharide (LPS).
The cells were incubated at room temperature for 15 min. 2-2.5 μl of 0.1 μg/ml LPS (Sigma, Escherichia coli 055:B5, Cat. No. L5418) dissolved in cell culture medium (final concentration 0.05 μg/ml) were then dispensed into each well. As neutral control, cells were treated with 0.05 μg/ml LPS and 1% DMSO and, as inhibitor control, with 1% DMSO only.
The amount of TNF-α was determined using the TNF-alpha HTRF Detection Kit (Cisbio, Cat. No. 62TNFPEB/C). To this end, 2 μl of the detection solution in each case, consisting of anti-TNF-α-XL665 conjugate and anti-TNF-α-cryptate conjugate dissolved in the reconstitution buffer in accordance with the manufacturer's instructions, were added for the HTRF (Homogeneous Time-Resolved Fluorescence) test. After the addition, the mixture was incubated either at room temperature for 3 h or at 4° C. overnight.
The activity of the substances is expressed as the ratio between neutral and inhibitor control in percent. The IC50 values were calculated using a 4-parameter fit.
On to `COCCn1cc2cc(NC(=O)c3cccc(C(F)(F)F)n3)c(C(C)(C)O)cc2n1` [Example 1, N-[6-(2-Hydroxypropan-2-yl)-2-(2-methoxyethyl)-2H-indazol-5-yl]-6-(trifluoromethyl)pyridine-2-carboxamide], for which the IC50 is 1 nM.
As for `COCCn1cc2cc(NC(=O)c3cccc(C(F)(F)F)n3)c(CO)cc2n1` [Example 2, N-[6-(Hydroxymethyl)-2-(2-methoxyethyl)-2H-indazol-5-yl]-6-(trifluoromethyl)pyridine-2-carboxamide], the figure is 15.1 nM; as for `COCCCn1cc2cc(NC(=O)c3cccc(C(F)(F)F)n3)c(CO)cc2n1` [Example 4, N-[6-(Hydroxymethyl)-2-(3-methoxypropyl)-2H-indazol-5-yl]-6-(trifluoromethyl)pyridine-2-carboxamide], 5.6 nM; as for `CC(C)(O)c1cc2nn(CCO)cc2cc1NC(=O)c1cccc(C(F)(F)F)n1` [Example 5, N-[2-(2-Hydroxyethyl)-6-(2-hydroxypropan-2-yl)-2H-indazol-5-yl]-6-(trifluoromethyl)pyridine-2-carboxamide], 5.4 nM.
For `CC(C)(O)c1cc2nn(CCCO)cc2cc1NC(=O)c1cccc(C(F)(F)F)n1` [Example 6, N-[6-(2-Hydroxypropan-2-yl)-2-(3-hydroxypropyl)-2H-indazol-5-yl]-6-(trifluoromethyl)pyridine-2-carboxamide] the value was 0.9 nM.
With `O=C(Nc1cc2cn(CCO)nc2cc1CO)c1cccc(C(F)(F)F)n1` [Example 7, N-[2-(2-Hydroxyethyl)-6-(hydroxymethyl)-2H-indazol-5-yl]-6-(trifluoromethyl)pyridine-2-carboxamide], the IC50 was found to be 16.4 nM.
For `CC(C)(O)c1cc2nn(CC3COC3)cc2cc1NC(=O)c1cccc(C(F)(F)F)n1` [Example 8, N-[6-(2-Hydroxypropan-2-yl)-2-(oxetan-3-ylmethyl)-2H-indazol-5-yl]-6-(trifluoromethyl)pyridine-2-carboxamide] the value was 1 nM; for `O=C(Nc1cc2cn(CC3COC3)nc2cc1CO)c1cccc(C(F)(F)F)n1` [Example 9, N-[6-(Hydroxymethyl)-2-(oxetan-3-ylmethyl)-2H-indazol-5-yl]-6-(trifluoromethyl)pyridine-2-carboxamide], 6.5 nM; for `CC(C)(O)c1cc2nn(CCCS(C)(=O)=O)cc2cc1NC(=O)c1cccc(C(F)(F)F)n1` [Example 10, N-{6-(2-Hydroxypropan-2-yl)-2-[3-(methylsulphonyl)propyl]-2H-indazol-5-yl}-6-(trifluoromethyl)pyridine-2-carboxamide], 1 nM.
As for `CC(C)(O)CCn1cc2cc(NC(=O)c3cccc(C(F)F)n3)c(C(C)(C)O)cc2n1` [Example 13, 6-(Difluoromethyl)-N-[2-(3-hydroxy-3-methylbutyl)-6-(2-hydroxypropan-2-yl)-2H-indazol-5-yl]pyridine-2-carboxamide], the figure is 0.1 nM; as for `CC(C)(O)c1cc2nn(CCS(C)(=O)=O)cc2cc1NC(=O)c1cccc(C(F)F)n1` [Example 14, 6-(Difluoromethyl)-N-{6-(2-hydroxypropan-2-yl)-2-[2-(methylsulphonyl)ethyl]-2H-indazol-5-yl}pyridine-2-carboxamide], 0.2 nM; as for `CC(C)(O)c1cc2nn(CCCO)cc2cc1NC(=O)c1cccc(C(F)F)n1` [Example 15, 6-(Difluoromethyl)-N-[6-(2-hydroxypropan-2-yl)-2-(3-hydroxypropyl)-2H-indazol-5-yl]pyridine-2-carboxamide], 0.2 nM.
As for `CC(C)(O)c1cc2nn(CCCC(F)(F)F)cc2cc1NC(=O)c1cccc(C(F)(F)F)n1` [Example 16, N-[6-(2-Hydroxypropan-2-yl)-2-(4,4,4-trifluorobutyl)-2H-indazol-5-yl]-6-(trifluoromethyl)pyridine-2-carboxamide], the figure is 0.2 nM; as for `CC(C)(O)c1cc2nn(CCCOC(F)(F)F)cc2cc1NC(=O)c1cccc(C(F)(F)F)n1` [Example 17, N-{6-(2-Hydroxypropan-2-yl)-2-[3-(trifluoromethoxy)propyl]-2H-indazol-5-yl}-6-(trifluoromethyl)pyridine-2-carboxamide], 0.5 nM; as for `CC(C)(O)c1cc2nn(CCCOCC(F)(F)F)cc2cc1NC(=O)c1cccc(C(F)(F)F)n1` [Example 18, N-{6-(2-Hydroxypropan-2-yl)-2-[3-(2,2,2-trifluoroethoxy)propyl]-2H-indazol-5-yl}-6-(trifluoromethyl)pyridine-2-carboxamide], 0.3 nM.
For `Cc1nc(C(=O)Nc2cc3cn(CCC(C)(C)O)nc3cc2C(C)(C)O)ccc1F` [Example 19, 5-Fluoro-N-[2-(3-hydroxy-3-methylbutyl)-6-(2-hydroxypropan-2-yl)-2H-indazol-5-yl]-6-methylpyridine-2-carboxamide], the half-inhibitory concentration (IC50) was determined as 0.1 nM.
For `Cc1cccc(C(=O)Nc2cc3cn(CCC(C)(C)O)nc3cc2C(C)(C)O)n1` [Example 20, N-[2-(3-Hydroxy-3-methylbutyl)-6-(2-hydroxypropan-2-yl)-2H-indazol-5-yl]-6-methylpyridine-2-carboxamide] the value was 0.2 nM; for `CC(C)(O)c1cccc(C(=O)Nc2cc3cn(CCCC(F)(F)F)nc3cc2C(C)(C)O)n1` [Example 21, 6-(2-Hydroxypropan-2-yl)-N-[6-(2-hydroxypropan-2-yl)-2-(4,4,4-trifluorobutyl)-2H-indazol-5-yl]pyridine-2-carboxamide], 1.8 nM.

Usually IC50 stands for the concentration that inhibits the measured activity by half.
